Reference: PubChem BioAssay (NCI)
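A five-concentration, 48-hour dose response in 96-well plates underlies each endpoint, interpolated linearly between surrounding concentrations. The concentration for full growth arrest is given as TGI.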

Legend:
Test in all cases: NCI-60 cell line screen, 48 h
TK-10 renal = test system: TK-10 renal
IGROV1 ovarian = test system: IGROV1 ovarian
UACC-257 melanoma = test system: UACC-257 melanoma
SK-MEL-28 melanoma = test system: SK-MEL-28 melanoma
NCI/ADR-RES ovarian = test system: NCI/ADR-RES ovarian
SNB-19 CNS = test system: SNB-19 CNS
HL-60(TB) leukemia = test system: HL-60(TB) leukemia
LOX IMVI melanoma = test system: LOX IMVI melanoma
HCT-15 colon = test system: HCT-15 colon
UO-31 renal = test system: UO-31 renal
A549 NSCLC = test system: A549 NSCLC
SF-539 CNS = test system: SF-539 CNS
HS 578T breast = test system: HS 578T breast
OVCAR-4 ovarian = test system: OVCAR-4 ovarian
CAKI-1 renal = test system: CAKI-1 renal
NCI-H226 lung = test system: NCI-H226 lung
NCI-H522 lung = test system: NCI-H522 lung
SK-OV-3 ovarian = test system: SK-OV-3 ovarian
CCRF-CEM leukemia = test system: CCRF-CEM leukemia
786-0 renal = test system: 786-0 renal
MDA-N = test system: MDA-N
OVCAR-5 ovarian = test system: OVCAR-5 ovarian
BT-549 breast = test system: BT-549 breast
SW-620 colon = test system: SW-620 colon
MDA-MB-435 = test system: MDA-MB-435
M14 melanoma = test system: M14 melanoma
MALME-3M melanoma = test system: MALME-3M melanoma
OVCAR-8 ovarian = test system: OVCAR-8 ovarian
ACHN renal = test system: ACHN renal
U251 CNS = test system: U251 CNS
HCT-116 colon = test system: HCT-116 colon
MDA-MB-231 breast = test system: MDA-MB-231 breast
COLO 205 colon = test system: COLO 205 colon
HT29 colon = test system: HT29 colon
UACC-62 melanoma = test system: UACC-62 melanoma
NCI-H23 lung = test system: NCI-H23 lung
SN12C renal = test system: SN12C renal
SF-268 CNS = test system: SF-268 CNS
KM12 colon = test system: KM12 colon
SK-MEL-2 melanoma = test system: SK-MEL-2 melanoma
SNB-75 CNS = test system: SNB-75 CNS
A498 renal = test system: A498 renal
SK-MEL-5 melanoma = test system: SK-MEL-5 melanoma
T-47D breast = test system: T-47D breast
MCF7 breast = test system: MCF7 breast
DU-145 prostate = test system: DU-145 prostate
EKVX NSCLC = test system: EKVX NSCLC
MOLT-4 leukemia = test system: MOLT-4 leukemia
RXF 393 renal = test system: RXF 393 renal
HOP-62 NSCLC = test system: HOP-62 NSCLC
PC-3 prostate = test system: PC-3 prostate
SF-295 CNS = test system: SF-295 CNS

Measured: TGI

COC(=O)c1cc(OS(=O)(=O)C(F)(F)F)c(=O)n2c1CCCC2
> 100 µM: all assays above
